Results taken from patent US9410152B2, “Use of microrna molecules to influence skin pigmentation” (CHANEL PARFUMS BEAUTE, priority 2011, dated 2016).
Entries after “also recorded” stand apart in the source; their conditions may differ.

How the values were obtained:
Assay type in all cases: cell-based, human
[1] = tested on: mRNA TYR; assay: qRT-PCR mRNA expression of TYR; details: MNT-1 cells, 50 nM mimetic, day 12, relative to cel-miR-239b, ΔΔCt
Experimental: 4×10^5 MNT-1 cells were seeded per well in a 6-well plate (#353046, Falcon) on day-1. On day 0, the cells were transfected with 50 nM of mimetic of the miRNAs (hsa-mir-137 # C-300604-07-005, hsa-mir-7 # C-300547-05-0005, hsa-mir-330-5p # C-301082-01-0005, negative control # NC-002000-01-05, Dharmacon), using 5 μL of Lipofectamine 2000 (#1668-019, Invitrogen). On day 1, the medium was changed. On day 3, the cells were trypsinized and seeded at 4×10^5 cells per well. On day 4, the cells were transfected again with 50 nM of mimetic of the miRNAs (see day 0). On day 5, the medium was changed. On day 7, the cells were trypsinized and seeded at 4×10^5 cells per well. On day 8, the cells were transfected with 50 nM of mimetic of the miRNAs (see day 0). On day 9, the medium was changed. On day 10, the cells were trypsinized and divided into two (from one by six wells to two by six wells). On day 12, one six-well plate was used for lysis of the RNA and the other for lysis of the proteins. As positive control of depigmentation, MNT-1 cells were incubated with 3.5 mM of kojic acid (Sigma K3125-5G) for 12 days. The cells were distributed as described and the kojic acid was renewed with the medium every 4 days. The percentage inhibition of the kojic acid is of the order of 10%. 700 μL of Qiazol lysis buffer (Qiagen) was added per well of a six-well dish after washing the cells twice with PBS. The total RNA was isolated using the miRNeasy Mini kit (Qiagen) according to the manufacturer's protocol. The total RNA was eluted in 30 μl of water without RNAse. The concentration of RNA was measured using the NanoVue spectrophotometer (GE Healthcare). 1 μg of total RNA was reverse-transcribed using the MLV RT-Enzyme system (Invitrogen) in 60 μL of reaction to produce the corresponding cDNA. Real-time PCR was performed using the IQTM SYBR® Green supermix (Biorad) (final reaction volume of 25 μL: 23 μL of Mix Master and 2 μL of cDNA). The thermocycling conditions ([…], Biorad) were as follows: 95° C. for 90 s, and 40 cycles at 95° C. for 30 s, 60° C. for 60 s and 95° C. for 10 s. The concentrations of primers and the sequences are given in Table 5 below: The relative quantity was evaluated using the ΔΔCt comparative method. Briefly, this method compares the quantity of expression of the target gene relative to an endogenous control TBP, within a sample for normalizing the expression. Within a group of samples, a suitable sample is selected as the calibrator sample ([…]). Each sample is then compared with a designated reference to give the relative expression of the target gene relative to this reference sample.

[2] = tested on: MNT-1 cells; assay: Overall pigmentation levels (photographs of protein lysates on day 12); details: 50 nM mimetic, 12 days, relative to negative control, photographs not shown
Experimental: 4×10^5 MNT-1 cells were seeded per well in a 6-well plate (#353046, Falcon) on day-1. On day 0, the cells were transfected with 50 nM of mimetic of the miRNAs (hsa-mir-137 # C-300604-07-005, hsa-mir-7 # C-300547-05-0005, hsa-mir-330-5p # C-301082-01-0005, negative control # NC-002000-01-05, Dharmacon), using 5 μL of Lipofectamine 2000 (#1668-019, Invitrogen). On day 1, the medium was changed. On day 3, the cells were trypsinized and seeded at 4×10^5 cells per well. On day 4, the cells were transfected again with 50 nM of mimetic of the miRNAs (see day 0). On day 5, the medium was changed. On day 7, the cells were trypsinized and seeded at 4×10^5 cells per well. On day 8, the cells were transfected with 50 nM of mimetic of the miRNAs (see day 0). On day 9, the medium was changed. On day 10, the cells were trypsinized and divided into two (from one by six wells to two by six wells). On day 12, one six-well plate was used for lysis of the RNA and the other for lysis of the proteins. As positive control of depigmentation, MNT-1 cells were incubated with 3.5 mM of kojic acid (Sigma K3125-5G) for 12 days. The cells were distributed as described and the kojic acid was renewed with the medium every 4 days. The percentage inhibition of the kojic acid is of the order of 10%. […] The XB2 keratinocytes serve as control for the unpigmented cells. […] As positive control of depigmentation, the MNT-1 cells were treated with kojic acid.

[3] = tested on: MNT-1 cells; assay: Measurement of the relative melanin concentration (absorbance at 470 nm of protein lysates); details: 50 nM mimetic, day 12, relative to transfection control cel-miR-239b (miCtrl), normalized to protein
Experimental: 4×10^5 MNT-1 cells were seeded per well in a 6-well plate (#353046, Falcon) on day-1. On day 0, the cells were transfected with 50 nM of mimetic of the miRNAs (hsa-mir-137 # C-300604-07-005, hsa-mir-7 # C-300547-05-0005, hsa-mir-330-5p # C-301082-01-0005, negative control # NC-002000-01-05, Dharmacon), using 5 μL of Lipofectamine 2000 (#1668-019, Invitrogen). On day 1, the medium was changed. On day 3, the cells were trypsinized and seeded at 4×10^5 cells per well. On day 4, the cells were transfected again with 50 nM of mimetic of the miRNAs (see day 0). On day 5, the medium was changed. On day 7, the cells were trypsinized and seeded at 4×10^5 cells per well. On day 8, the cells were transfected with 50 nM of mimetic of the miRNAs (see day 0). On day 9, the medium was changed. On day 10, the cells were trypsinized and divided into two (from one by six wells to two by six wells). On day 12, one six-well plate was used for lysis of the RNA and the other for lysis of the proteins. As positive control of depigmentation, MNT-1 cells were incubated with 3.5 mM of kojic acid (Sigma K3125-5G) for 12 days. The cells were distributed as described and the kojic acid was renewed with the medium every 4 days. The percentage inhibition of the kojic acid is of the order of 10%.
On day 12, the cells were washed in PBS twice and lysed in 75 μL/well of a 6-well dish of lysis buffer for the RIPA proteins. The protein lysates were transferred to 1.5-ml Eppendorf tubes and vortexed lightly to homogenize the solution before putting the tube on ice or for storage at −80° C. 2 μL of protein lysate was used for measuring the absorbance of the melanin at 470 nm using the NanoVue spectrophotometer (GE Healthcare). The protein lysate of the unpigmented XB2 keratinocytes was used as calibrator sample (reference=0). To detect the relative quantity of melanin, all the samples were compared with the transfection control sample (miCtrl). The absorbance at 470 nm of the sample miCtrl was fixed at 1 as reference. In addition, the melanin absorption at 470 nm was normalized taking into account the concentration of proteins of each sample relative to miCtrl.

Row | Substance | levels of mRNA TYR [1] | levels of mRNA TYR ([1]; listed as miR-7) | overall pigmentation levels [2] | overall pigmentation levels ([2]; listed as miR-7) | relative levels of melanin (absorbance at 470 nm) [3]
1 | hsa-miR-7: mimetic of miRNA hsa-mir-7 (Dharmacon C-300547-05-0005); mature hsa-miR-7-5p sequence SEQ ID NO: 2 (UGGAAGACUAGUGAUUUUGUUGU; commercial mimic, chemistry not given here; listed as Homo sapiens) | decreased | appears to reduce | do not show a significant reduction | do not show any significant effect | slight increase
2 | hsa-miR-137: mimetic of miRNA hsa-mir-137 (Dharmacon C-300604-07-005); mature sequence SEQ ID NO: 3 (UUAUUGCUUAAGAAUACGCGUAG; commercial mimic, chemistry not given here; listed as Homo sapiens) | decreased; also recorded: significantly reduced |  | significant reduction |  | reduction; also recorded: decrease in melanin
3 | hsa-miR-330-5p: mimetic of miRNA hsa-mir-330-5p (Dharmacon C-301082-01-0005); mature sequence 5'-UCUCUGGGCCUGUGUCUUAGGC-3' (SEQ ID NO: 1) (UCUCUGGGCCUGUGUCUUAGGC; mimic duplex, passenger strand not given here; listed as Homo sapiens) | decreased; also recorded: appears to reduce |  | significant reduction |  | reduction; also recorded: decrease in melanin
